Key:
[1] = test system: platelets (platelet activation); test: Mean platelet component concentration (MPC, platelet density) on the ADVIA 120 Hematology System in whole blood of patients before and after anti-platelet therapy and PTCA; assay type: in vivo, human; settings: for mean MPC level: Clopidogrel patients n=29, baseline 27.8±0.4 g/dL; for mean MPC level / MPC level: mean±SE; for MPC level: abciximab patients n=15, baseline 28.0±0.3 g/dL
Procedure: (§1) Patients. A total of 44 patients who underwent elective percutaneous coronary angioplasty and stenting were evaluated. The study was approved by the institutional committee on human research. Patients were enrolled in the study after informed consent had been obtained. Their baseline variables including age, gender, smoking history, risk factors, antecedents and medication were documented. These patients received either a loading dose of Clopidogrel (300 mg) before the beginning of the PTCA procedure followed by 75 mg daily for 1 month or intravenously a 0.25 mg/kg, bolus of Abciximab before the beginning of the PTCA procedure followed by a 0.125 μg/kg/mn infusion for 12 h.
(§2) Blood collection. Blood was drawn with a 21-gauge needle into EDTA (5 mM) tubes, mixed immediately with the anticoagulant and avoiding frothing during the mixing procedure. The first 1-2 ml of blood were discarded to avoid the effects of traces of thrombin generated during venipuncture. Serum was collected for CRP measurements. Whole blood specimens for measurement of the ADVIA® 120 Hematology System platelet parameters and flow cytometry analysis were taken prior to baseline, 2 hours, and 24 hours after administration of anti-platelet therapy and PTCA. For platelet activation measurements, all specimens were processed within 1 h after blood collection.
Bayer ADVIA 120 automated hematology system platelet density measurement. The two-dimensional platelet method is based on the analysis of platelets in whole blood by flow cytometry using the ADVIA 120. The system was standardized and calibrated as per the manufacturer's instructions. The ADVIA 120 Hematology System was quality-controlled using TESTpoint Hematology control reagents (Bayer HealthCare, LLC, Tarrytown, N.Y.). The whole blood specimens anticoagulated with EDTA were processed within 1 h after specimen collection. […] See Macey M. G. et al., Cytometry (1999) 38:250-255; Chapman E. S. et al., Thromb. Haemost. (2003) 89:1004-1015; Ahnadi C. E. et al., Thromb. Haemost (2003) 90:940-948. In this study, MPC determinations were acquired as a measure of platelet activation at baseline, 2 hours, and 24 hours after anti-platelet drug therapy.
(§3) Patients. A total of 44 patients who underwent elective percutaneous coronary angioplasty and stenting were evaluated Patients were enrolled in the study after informed consent had been obtained. Their baseline variables including age, gender, smoking history and medication were documented. The treatments were assigned based on the angiographic characteristics. Patients with presence of thrombus and high risk vessel disease were assigned to Abciximab. Two thirds (n=29) of patients received a loading dose of Clopidogrel (300 mg) before the beginning of the PTCA procedure followed by 75 mg daily for 1 month. One third (n=15) of patients received a 0.25 mg/kg bolus of Abciximab intravenously before the beginning of the PTCA procedure followed by a 0.125 μg/kg/min infusion for 12 h. These patients also received Clopidogrel a designated number of hours after PTCA.
Collection of blood. Blood was drawn with a 21-gauge needle into EDTA (5 mM) tubes, mixed immediately with the anticoagulant, and avoiding frothing during the mixing procedure. The first 1-2 ml of blood were discarded to avoid the effects and traces of thrombin generated during venipuncture. Universal precautions were taken at all times during phlebotomy. Whole blood specimens for measurement of the ADVIA 120 System platelet parameters and CD62P-PE flow cytometry analysis were taken prior to baseline, 2 h, 5 h, and 24 h after administration of a loading charge of Clopidogrel and percutaneous transluminal coronary angioplasty (PTCA), and prior to, 10 min, 2 h, and 24 h after administration of the Abciximab bolus and PTCA. All specimens were processed within 1 h after blood collection.
Bayer ADVIA 120 Automated Hematology System platelet density measurement. […]

[2] = test system: platelet activation markers CD62, CD63, and PAC-1; settings: after stimulation with ADP or thrombin; healthy subjects and patients after myocardial infarction; cited from earlier work
[3] = test system: CD62P (P-selectin) expression on platelets; test: Platelet CD62P (P-selectin) expression by fluorescence flow cytometry in whole blood of patients before and after anti-platelet therapy and PTCA; assay type: in vivo, human; settings: for mean CD62P expression (percent positive events): Clopidogrel patients n=29, 300 mg loading dose and PTCA, baseline 9.5±3.3%; for mean CD62P expression (percent positive events) / CD62P percent positive expression / CD62P expression (percent positive events): mean±SE; for CD62P percent positive expression: patients with high baseline platelet activation, baseline 23.4±6.6%, p<0.01; for CD62P expression (percent positive events): abciximab patients n=15, 0.25 mg/kg bolus plus infusion and PTCA, baseline 9.3±4.0%
Procedure: as §1, §2
Fluorescence flow cytometry analysis. Whole blood samples were fixed with methanol-free paraformaldehyde (final concentration 0.5%). Fixed blood (5 μl) was incubated at room temperature for 15 min in the dark with monoclonal antibody CD61a-FITC. (10 μl) to identify the platelets and CD62P-PE (10 μl) to measure the expression of P-selectin. Platelets labeled with FITC or PE-conjugated isotype control antibody were used as control for nonspecific staining.
Samples were diluted to 1 ml with PBS. FACScan calibration and compensation were performed as recommended by the manufacturer. Five thousand (5,000) CD61a positive events were acquired on the FACScan flow cytometer (Becton Dickinson, Franklin Lakes, N.J.) equipped with Lysis II software. Data analysis was performed using a threshold based on the FITC-fluorescence correlating to the platelet specific binding of CD61a-FITC antibodies. A gate was drawn around the fluorescent platelet population. The CD61a-FITC labeled platelets that were also positive for PE-conjugated activation marker antibody (CD62P) was quantitated and presented as percentage of positive events.
as §3
Collection of blood. Blood was drawn with a 21-gauge needle into EDTA (5 mM) tubes, mixed immediately with the anticoagulant, and avoiding frothing during the mixing procedure. The first 1-2 ml of blood were discarded to avoid the effects and traces of thrombin generated during venipuncture. Universal precautions were taken at all times during phlebotomy. […]

## COC(=O)[C@H](c1ccccc1Cl)N1CCc2sccc2C1 [Clopidogrel]
[1]; 2 h
  mean MPC level: 28.4 ± 0.3 g/dL
[1]; 5 h
  mean MPC level: 28.9 ± 0.2 g/dL
[1]; 24 h
  mean MPC level: 28.7 ± 0.2 g/dL
[1]; patients with high baseline platelet activation, 2 h, baseline 25.7±0.8 g/dL, p<0.01
  MPC value: 28.0 ± 0.5 g/dL
[1]; patients with high baseline platelet activation, 5 h, baseline 25.7±0.8 g/dL, p<0.01
  MPC value: 28.8 ± 0.3 g/dL
[1]; patients with high baseline platelet activation, 24 h, baseline 25.7±0.8 g/dL, p<0.01
  MPC value: 28.4 ± 0.3 g/dL
[2]
  expression of platelet activation markers CD62, CD63, and PAC-1: suppresses expression
[3]; 2 h
  mean CD62P expression (percent positive events): 3.1±1.8%
  CD62P percent positive expression: 2.0±1.0%
[3]; 5 h
  mean CD62P expression (percent positive events): 1.2±0.7%
  CD62P percent positive expression: 0.3±0.1%
[3]; 24 h
  mean CD62P expression (percent positive events): 1.8±1.1%
  CD62P percent positive expression: 1.5±0.5%
[3]; group of patients with the greatest baseline platelet activation
  platelet activation as determined by both CD62P decrease and increasing MPC: significant reduction

## CC(=O)Oc1ccccc1C(=O)O [aspirin]
[3]; patients on aspirin therapy before admission, by the classic (CD62P) or new (MPC) platelet activation measurements
  platelet inhibition effect: not demonstrated

B1: Abciximab (antibody, chains of the INN, looked up, V domains shown)
VH: EVQLQQSGTVLARPGASVKMSCEASGYTFTNYWMHWVKQRPGQGLEWIGAIYPGNSDTSYIQKFKGKAKLTAVTSTTSVYMELSSLTNEDSAVYYCTLYDGYYVFAYWGQGTLVTVSA
VL: EIVLTQSPVTLSVTPGDSVSLSCRASRDISNNLHWFQQTSHESPRLLIKYASQSMSGIPSRFSGSGSGTDFTLSINSVETEDFGMYFCQQTNSWPYTFGGGTKLEIK
modifications: Fab
notes: the monoclonal antibody, abciximab
[1]; 10 min
  MPC level: 27.9 ± 0.3 g/dL
[1]; 2 h
  MPC level: 28.0 ± 0.4 g/dL
[1]; 24 h
  MPC level: 28.4 ± 0.2 g/dL
[1]; one patient, 2 hours after Abciximab and angioplasty, baseline 28.3 g/dL, complications of pacemaker installation
  MPC value: 22.8 g/dL
[3]; 2 h
  CD62P expression (percent positive events): 7.9±5.4%
[3]; 24 h
  CD62P expression (percent positive events): 0.7±0.3%
[3]; one patient, 2 hours after Abciximab and angioplasty, baseline 4.2%, complications of pacemaker installation
  CD62P-PE value: 75%

From patent US7723064B2, “Methods for monitoring patients for efficacy of an antiplatelet therapy regimen” (Siemens Healthcare Diagnostics Inc., priority 2004, dated 2010)
